Structures can show the parent of a compound that is named as a salt. Where two headings read alike, the source gives them in different places.
Assays:
[1] = system: kidney fibrosis; details: in vivo; cited from earlier work
[2] = system: mGli1; assay: PK/PD GIi1 expression in Balb/c surrogate tissues after single oral dose (qRT-PCR TaqMan); format: in vivo, Balb/c mouse
From the text: (§1) Following the predetermined dosing period, surrogate tissues (lung, skin, and cerebellum) from Balb/C mouse and tumor from Ptch^−/+×p53^−/− transgenic tumor model were harvested, processed, and evaluated for GIi1 expression levels using a quantitative reverse transcription polymerase chain reaction TaqMan® assay. […] Given the parallel PD effects, skin GIi1 is an appropriate PD surrogate for lung tissue GIi1.

[3] = system: Hh signaling activity in mouse C3H10T½ cells; assay: Gli-Luciferase activity in C3H10T½ cells stimulated with SHh-CM; format: cell-based; details: n=8, geometric mean±SE
[4] = system: Hh signaling activity in human Daoy cells; assay: GIi1 transcript levels in Daoy tumor cell line stimulated with SHh-CM (branched chain DNA assay); format: cell-based; details: GIi1 mRNA, n=8, geometric mean±SE
[5] = system: Brain Tumor mGli1; assay: PK/PD GIi1 expression in Ptch−/+ × p53−/− transgenic tumor model (qRT-PCR TaqMan); format: in vivo, mouse; details: PTCH Tg, single oral dose
From the text: as §1

[6] = cited from earlier work; for predominant AE causing discontinuation: comparator drugs
[7] = system: IPF patients; details: cited from earlier work; for effect on FVC in clinical trials (FIG. 1): IPF patients, 24 weeks (GLPG1690 12 weeks), vismodegib in combination with pirfenidone
[8] = system: GIi1 mRNA; assay: GIi1 mRNA inhibition in skin biopsies of clinical subjects; format: in vivo, human
Description: (§2) Taldegib was administered to subjects at doses of 50, 100, 200, 400 and 600 mg.

[9] = system: α-SMA protein expression (myofibroblasts); assay: bleomycin-induced pulmonary fibrosis model, anti-α-SMA immunohistochemistry; details: 5 mg/kg orally daily from day seven, pathology on day 21
From the text: FIG. 4B depicts the percent α-SMA positive area from the individual mice and the mean and standard deviation for the treatment groups.
A Microsprayer® Aerosolizer was used to perform intratracheal administration of bleomycin. By administering bleomycin via Microsprayer® Aerosolizer, it can be evenly exposed to the lungs and thus, develops a reproducible and uniform pathology.
Pathology of animals was examined on day 21 of the study.

[10] = Biopharmaceutics Classification System (BCS) class; format: physicochemical
[11] = system: IPF; assay: Phase 2 multi-center study of safety and efficacy in subjects with IPF; format: in vivo, human
From the text: Quantitative (% and mL) and qualitative (improved, same, worse) assessment of lung fibrosis by HRCT will be performed at Screening and Week 12. The Screening HRCT will serve as the baseline for study HRCT assessments.

[12] = system: Hh; details: Zhu et al. 2019; read-out: ID50 for Hh inhibition; cited from earlier work
[13] = oral bioavailability; details: in vivo
From the text: This molecule has been in over 192 human subjects and developed initially with the intention of treating oncologic indications with a focus on lung cancer and basal cell carcinoma (BCC). Although primarily cancer patients, these studies allowed for a preliminary understanding of dose and tolerability.

[14] = system: GIi1 activity; details: Daoy cells, assay of U.S. Pat. No. 9,000,023; cited from earlier work
[15] = system: lung fibrosis
[16] = clinical pharmacokinetics; details: human, in vivo
[17] = clinical safety and tolerability (MTD, adverse events, discontinuations)
Description: as §2

[18] = system: GIi1 mRNA; details: vismodegib at its MTD of 150 mg; cited from earlier work
[19] = Balb/c, cerebellum, single oral dose
[20] = after sufficient step-down of dosage, if any

For `CC1=C2C[C@H]3[C@@H](CC[C@@H]4C[C@H](NS(C)(=O)=O)CC[C@@]43C)[C@@H]2CC[C@@]2(C1)O[C@@H]1C[C@H](C)CN[C@H]1[C@H]2C` [IPI-926], the “efficacy in treating kidney fibrosis” value [1] is listed as “ineffective”.
For `CN(C(=O)c1ccc(F)cc1C(F)(F)F)C1CCN(c2nnc(-c3ccnn3C)c3ccccc23)CC1` [Taladegib hydrochloride], the “Cerebellum mGli1 TEC50” value [2, 19] was 230 ng/mL, the “Cerebellum mGli1 TED50” value [2, 19] was 2.2 mg/kg and the “Lung mGli1 TEC50” value ([2]; Balb/c, lung, single oral dose) was 264 ± 114 ng/mL. For the same compound, the “Lung mGli1 TED50” value ([2]; Balb/c, lung, single oral dose) was 2.6 ± 0.6 mg/kg, the “Skin mGli1 TEC50” value ([2]; Balb/c, skin, single oral dose) was 84 ng/mL and the “Skin mGli1 TED50” value ([2]; Balb/c, skin, single oral dose) was 1.1 mg/kg. The “duration of sustained target inhibition” value ([2]; time course, single oral dose 8 mg/kg) was “at least 24 hours”, the IC50 [3] was 11.2 ± 5.33 nM and the IC50 [4] was 2.22 ± 1.14 nM. For the same compound, the “Brain Tumor mGli1 TEC50” value [5] was 63.0 ng/mL and the “Brain Tumor mGli1 TED50” value [5] was 1.0 mg/kg.
In the case of `CC1=C2C[C@H]3[C@@H](CC=C4C[C@@H](O)CC[C@@]43C)[C@@H]2CC[C@]12O[C@@H]1C[C@H](C)CN[C@H]1[C@H]2C` [cyclopamine], the “efficacy in treating kidney fibrosis” value [1] is given as “ineffective”.
For `COC(=O)c1ccc2c(c1)NC(=O)/C2=C(\Nc1ccc(N(C)C(=O)CN2CCN(C)CC2)cc1)c1ccccc1` [nintedanib], the “predominant AE causing discontinuation” value [6] is listed as “diarrhea” and the “effect on FVC in clinical trials (FIG. 1)” value (from here on “effect on FVC”) [7] is listed as “only able to slow the deterioration of FVC”.
In the case of `Cc1ccc(=O)n(-c2ccccc2)c1` [pirfenidone], the “predominant AE causing discontinuation” value [6] is listed as “nausea” and the “effect on FVC” value [7] is listed as “only able to slow the deterioration of FVC”.
In the case of `CN(C(=O)c1ccc(F)cc1C(F)(F)F)C1CCN(c2nnc(-c3ccnn3C)c3ccccc23)CC1` [taladegib], the “pharmacological activity (BED: inhibition >50%)” value ([8]; all dose levels tested, 50-600 mg) is reported as “pharmacologically active at all dose levels tested”, the “inhibition of GIi1 mRNA” value ([8]; dose 50 mg) is reported as “greater than 80%” and the “GIi1 mRNA inhibition in skin” value ([8]; dose 400 mg (MTD)) is reported as > 85%. For the same compound, the “inhibition of Gli in skin biopsies” value ([8]; doses of 50, 100, 200, 400 and 600 mg, most patients) was > 80%, the “reduction of α-SMA protein expression” value [9] was “approximately 40%” and the BCS class [10] was “class II (high permeability, low solubility)”. The “serious drug-related adverse events” value [11, 20] was “did not experience serious drug-related adverse events”, the efficacy endpoints ([11]; at 12 weeks) was “stabilization or improvement” and the dose limiting toxicities ([11]; at 12 weeks, starting at 200 mg/day) was “no or limited dose limiting toxicities are observed”. The “durability of the response” value ([11]; at 18 weeks) was “durability of the response is observed”, the IC50 [12] was 2.26 nM and the bioavailability [13] was 72 to 91%. The IC50 [14] was ~2.4 nM, the “serious drug-related adverse events” value [15, 20] was “did not experience serious drug-related adverse events” and the efficacy endpoints ([15]; at 24 weeks, starting at 200 mg daily) was “stabilization or improvement”. For the same compound, the half-life ([16]; across all doses, estimated, read-out: mean half-life (t½) (converted)) was ~16 h, the Tmax ([16]; read-out: median tmax) was 2 h and the “most commonly observed adverse events (AEs)” value ([17]; human, in vivo) was “nausea, diarrhea, dysgeusia, fatigue, decreased appetite, alopecia, vomiting, muscle spasm, constipation, weight decrease, and headache”. For the same compound, the “occurrence of muscle spasms” value ([17]; human, in vivo) was 40%, the “predominant AE causing discontinuation” value ([17]; human, in vivo) was “no prevalent AE” and the “clinically established MTD” value ([17]; taladegib) was 400 mg.
For `CS(=O)(=O)c1ccc(C(=O)Nc2ccc(Cl)c(-c3ccccn3)c2)c(Cl)c1` [vismodegib], the “GIi1 mRNA inhibition” value [18] is given as “less than 50%”, the “predominant AE causing discontinuation” value [6] is given as “muscle spasms” and the discontinuation of participants ([6]; single arm IPF study, combination with pirfenidone, severe muscle spasms) is given as “over 40%”. For the same compound, the “Muscle Spasm Adverse Event Frequency, Grade 1” value ([6]; vismodegib 150, 104 patients) was 43% (45), the “Muscle Spasm Adverse Event Frequency, Grade 2” value ([6]; vismodegib 150, 104 patients) was 22% (23) and the “Muscle Spasm Adverse Event Frequency, Grade 3” value ([6]; vismodegib 150, 104 patients) was 6% (7). The “Muscle Spasm Adverse Event Frequency, Grade 4” value ([6]; vismodegib 150, 104 patients) was 0%, the MTD ([6]; vismodegib) was 150 mg and the “effect on FVC” value [7] was “substantial increase in FVC”. For the same compound, the “increase in Forced Vital Capacity (FVC)” value ([7]; single arm IPF study, combination with pirfenidone, after six months, average) was “approximately 100 mL”.
For `CCc1nc2c(C)cc(N3CCN(CC(=O)N4CC(O)C4)CC3)cn2c1N(C)c1nc(-c2ccc(F)cc2)c(C#N)s1` [zirtaxestat], the “effect on FVC” value [7] is given as “small increase in FVC”.
